Data as given in ChEMBL document CHEMBL1130571, “Synthesis and evaluation of novel-N-[2-(bis-aryl-methoxy)ethyl-N-aralkyl-,-alkanediamines as potent and selective dopamine reuptake inhibitors: Seco analogs of GBR12935 and GBR12909” (Bioorg Med Chem Lett, 1997).
Structures can show the parent of a compound that is named as a salt.

Assays:
[1] = biological target: Sodium-dependent dopamine transporter (Rattus norvegicus, UniProt P23977); experiment: Compound was tested for its ability to inhibit the neurotransmitter dopamine-DA reuptake system using [3H]dopamine as radioligand
Sodium-dependent dopamine transporter, sequence (P23977 whole entry): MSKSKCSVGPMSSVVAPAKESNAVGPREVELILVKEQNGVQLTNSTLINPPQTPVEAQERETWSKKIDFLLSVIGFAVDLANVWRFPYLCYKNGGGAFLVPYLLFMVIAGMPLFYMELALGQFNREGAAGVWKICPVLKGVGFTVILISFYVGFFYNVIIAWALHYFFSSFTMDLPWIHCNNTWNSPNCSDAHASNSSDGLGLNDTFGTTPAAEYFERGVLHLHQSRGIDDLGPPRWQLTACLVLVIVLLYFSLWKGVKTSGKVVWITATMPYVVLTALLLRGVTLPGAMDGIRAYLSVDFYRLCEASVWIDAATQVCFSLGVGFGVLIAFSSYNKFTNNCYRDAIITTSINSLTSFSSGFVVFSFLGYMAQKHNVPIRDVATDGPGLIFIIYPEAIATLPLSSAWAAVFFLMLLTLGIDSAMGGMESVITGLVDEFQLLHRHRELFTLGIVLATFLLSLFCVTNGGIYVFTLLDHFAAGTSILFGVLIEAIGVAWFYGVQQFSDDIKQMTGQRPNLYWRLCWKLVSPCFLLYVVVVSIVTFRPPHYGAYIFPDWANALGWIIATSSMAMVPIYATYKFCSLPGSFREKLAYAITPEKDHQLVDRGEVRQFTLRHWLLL

[2] = biological target: Norepinephrine transporter (Rattus norvegicus, UniProt Q9WTR4); experiment: Norepinephrine transporter activity was determined by the ability of compound to inhibit the neurotransmitter norepinephrine-NE reuptake system using [3H]norepinephrine as radioligand
Norepinephrine transporter, sequence (Q9WTR4 whole entry): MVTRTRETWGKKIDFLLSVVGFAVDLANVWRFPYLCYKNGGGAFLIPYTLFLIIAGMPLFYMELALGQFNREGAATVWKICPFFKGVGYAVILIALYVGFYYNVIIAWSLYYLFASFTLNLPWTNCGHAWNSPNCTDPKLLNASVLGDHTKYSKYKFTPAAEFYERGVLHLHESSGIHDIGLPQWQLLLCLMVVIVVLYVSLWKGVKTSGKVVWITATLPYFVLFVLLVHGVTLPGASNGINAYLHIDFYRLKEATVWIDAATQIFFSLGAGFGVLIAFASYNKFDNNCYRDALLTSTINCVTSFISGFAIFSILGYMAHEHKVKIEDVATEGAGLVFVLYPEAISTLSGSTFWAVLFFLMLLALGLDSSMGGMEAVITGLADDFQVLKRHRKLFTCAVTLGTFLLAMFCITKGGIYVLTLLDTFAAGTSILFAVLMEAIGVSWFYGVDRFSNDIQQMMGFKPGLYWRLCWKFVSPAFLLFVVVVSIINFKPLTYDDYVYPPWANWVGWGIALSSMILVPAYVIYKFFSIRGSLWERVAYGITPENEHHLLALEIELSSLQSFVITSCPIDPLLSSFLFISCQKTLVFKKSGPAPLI

[3] = biological target: Sodium-dependent serotonin transporter (Rattus norvegicus, UniProt P31652); experiment: Compound was tested for its ability to inhibit the neurotransmitter serotonin-5-HT reuptake system using [3H]5-HT as radioligand
Sodium-dependent serotonin transporter, sequence (P31652 whole entry): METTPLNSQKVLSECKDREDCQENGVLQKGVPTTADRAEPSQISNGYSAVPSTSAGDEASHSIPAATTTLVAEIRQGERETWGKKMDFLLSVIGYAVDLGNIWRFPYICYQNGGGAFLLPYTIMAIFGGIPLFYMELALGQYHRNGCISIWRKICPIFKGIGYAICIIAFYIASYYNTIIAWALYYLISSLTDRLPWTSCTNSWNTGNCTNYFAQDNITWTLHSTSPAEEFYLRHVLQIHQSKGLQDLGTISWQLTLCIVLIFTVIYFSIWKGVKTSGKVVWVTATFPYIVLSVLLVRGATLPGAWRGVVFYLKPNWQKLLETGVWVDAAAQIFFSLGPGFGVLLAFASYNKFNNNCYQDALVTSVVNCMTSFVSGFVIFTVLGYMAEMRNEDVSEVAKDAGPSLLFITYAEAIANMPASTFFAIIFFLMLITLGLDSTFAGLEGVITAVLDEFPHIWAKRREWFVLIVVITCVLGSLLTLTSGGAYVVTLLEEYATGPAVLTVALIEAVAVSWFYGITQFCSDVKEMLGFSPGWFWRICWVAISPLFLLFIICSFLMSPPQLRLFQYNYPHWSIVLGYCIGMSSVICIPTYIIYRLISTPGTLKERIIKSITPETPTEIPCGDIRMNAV

[4] = Selectivity of compound towards DA transporter to that of NE transporter

Row | Compound | IC50 [1] | IC50 [2] | IC50 [3] | Selectivity [4]
1 | I/C=C/CN1CCN(CCOC(c2ccccc2)c2ccccc2)CC1 | 505 nM | > 10 µM | > 10 µM | > 20
2 | c1ccc(CCCNCCCNCCOC(c2ccccc2)c2ccccc2)cc1 | 150 nM | > 10 µM | > 10 µM | > 65
3 | I/C=C\CN1CCN(CCOC(c2ccccc2)c2ccccc2)CC1 | 780 nM | 2.19 µM | > 10 µM | 3
4 | c1ccc(CCCNCCNCCOC(c2ccccc2)c2ccccc2)cc1 | 1230 nM | > 10 µM | > 10 µM | > 8
5 | CC(NC(C)(C)C)C(=O)c1cccc(Cl)c1 (stereo not given) [BUPROPION HYDROCHLORIDE] | 1230 nM | – | – | –
6 | CN(CCCc1ccccc1)CCN(C)CCOC(c1ccc(F)cc1)c1ccc(F)cc1 | 10 nM | > 10 µM | 1.5 µM | > 1000
7 | Fc1ccc(C(OCCNCCNCCCc2ccccc2)c2ccc(F)cc2)cc1 | 49 nM | > 10 µM | 0.5 µM | > 200
